According to patent US20220339596A1, “METHOD FOR PRODUCING RADICALS, METHOD FOR STERILIZING SPORES, AND CANCER TREATMENT DRUG” (priority 2019, published 2022):
Read-outs that look alike come from different tables or passages of the source.

Tests used:
Yeast cells = type: cell-based
Experimental: Yeast was inoculated into a modified YPE liquid medium (2% of polypeptone, 1% of yeast extract, 2% of ethanol, and 0.2% of glucose) and was incubated at 30° C. for 1 day. A bacterial liquid was collected from the liquid medium and washed by being suspended in purified water, and yeast cells collected through centrifugal separation were taken as a specimen. The cells were suspended in a 100 mmol/L potassium phosphate buffer solution (pH: 7.0) at a concentration of about 5×10^8 cells/mL. Also, the suspension of cells was diluted with a 100 mmol/L potassium phosphate buffer solution as appropriate so as to have a target concentration of cells.
The reagent containing chlorine dioxide radicals prepared as described above in (3) was diluted with a 10 mmol/L potassium phosphate buffer solution (pH: 7.0) to prepare a sample containing chlorine dioxide radicals at a concentration of 20 μmol/L. On the other hand, the suspension of cells prepared in (1) was diluted with a 10 mmol/L potassium phosphate buffer solution (pH: 7.0) such that the concentration of cells was about 5×10^8 cells/mL. Next, 0.5 mL of the sample containing chlorine dioxide radicals was mixed with 0.5 mL of the suspension of cell spores, and the liquid mixture was left to stand at room temperature for 30 minutes. Thereafter, the liquid mixture was scattered over brain heart agar and incubated at 30° C. for 1 day, and then the number of colonies was counted.
Then, similarly to Experiment 1 described above, 0.5 mL of a yeast solution having a yeast cell concentration of about 5×10^8 cells/mL was added to 0.5 mL of the reagent, and 1 mL of the resultant solution was placed in a disposable cell UV (product name: Two-face transparent semimicro #1941, Nikko Hansen & CO., LTD.), and was irradiated with light using an LED via a side surface of the cell. […] The radiant energy under the above condition was calculated as 37.8 J/cm^2. The solution after the treatment was scattered over brain heart agar after being diluted as appropriate, and incubated at 30° C. for 1 day, and then the number of colonies was counted.

respiratory chain [1] = experiment: Electron transfer activity of the respiratory chain in yeast cells; type: cell-based; settings: in proportion to the reduction in survival rate
Source text: (§1) Accordingly, it is supposed that the respiratory chain in mitochondria was one target portion of the yeast cells and the Candida cells treated with chlorine dioxide radicals. It is thought that when the respiratory chain is damaged, ROS (Reactive Oxygen Species) are generated, which leads to apoptosis and the death of cells.

respiratory chain [2] = experiment: Electron transfer activity of the respiratory chain in Candida cells; type: cell-based, Candida albicans; settings: in proportion to the reduction in survival rate
Source text: as §1

Candida albicans = type: cell-based
[3] = ClO2 radical concentration over time (absorption spectrum); type: physicochemical; settings: photoirradiation not performed
Experimental: 1 mL of each of the reagents was placed in a disposable cell UV (product name: Two-face transparent semimicro #1941,Nikko Hansen & CO., LTD.), and was irradiated with light via a side surface of the cell using an LED in the same manner as in Example 1 (1) described above. The photoirradiation was performed similarly to Example 1 described above, unless otherwise specified. […] Then, an absorption spectrum was measured over time from the start of irradiation using the double optical path spectrophotometer (product name: UV-2400PC, SHIMADZU CORPORATION), and the molar concentration of chlorite ions (ClO2^−) was calculated from an absorbance at the minimum absorption of the wavelength of 260 nm, and the molar concentration of chlorine dioxide radicals (ClO2^⋅) was calculated from an absorbance at the maximum absorption of the wavelength of 359 nm.

[4] = test system: Spores of Bacillus subtilis; type: cell-based
Experimental: Bacillus subtilis was scattered over a nutrient agar medium and incubated at 37° C. for 1 week. Colonies were scraped off from the agar medium and washed by being suspended in a physiological saline solution, and Bacillus subtilis collected through centrifugal separation was taken to be cell spores. The cell spores were suspended in a physiological saline solution at a concentration of about 6×10^6 spores/mL. The suspension of cell spores was prepared so as to have the target concentration of cell spores by being diluted with purified water as appropriate.
On the other hand, a reagent having a pH of 7.0 was prepared and irradiated with light using the LED in the same manner as that described above in (1) to generate radicals. The reagent (chlorine dioxide radical concentration: 600 μmol/L) in which radicals were generated was diluted with a 10 mmol/L potassium phosphate buffer solution (pH: 7.0) as appropriate to prepare samples containing radicals at predetermined concentrations. […] Thereafter, the liquid mixture was scattered over brain heart agar, incubation was performed at 37° C. for 12 hours, and then the number of colonies was counted.
As control 1, a reagent having a pH of 7.0 that was not irradiated with light was added to the suspension of cell spores and was left to stand, and incubation was performed as described above, and then the number of colonies was counted. […]

[5] = test system: HT-29 cells (human colon adenocarcinoma cells); settings: for cancer cells killed: 455 nm light 72 J/cm^2
Experimental: HT-29 cells (human colon adenocarcinoma cells) were inoculated into each well of a cell incubation microplate (subjected to surface treatment) having 96 wells and grown in a CO2 incubator at 37° C. in the presence of 5% of CO2 until the number of cells reached about 2000 cells/well. 90 μL of McCoy's 5a Medium (the name of a product manufactured by FUJIFILM Wako Pure Chemical Corporation) was used as the cell culture medium. Next, after each treatment described below in (1) to (6) was performed, the medium was replaced with 90 μL of McCoy's 5a Medium and the cells were incubated in the CO2 incubator for 2 days under the above conditions. 10 μL of a WST-8 solution (solution in a product “WST-8 Cell Proliferation Kit”, Funakoshi Co., Ltd.) was added to measure the number of living cells, then incubation was performed in the CO2 incubator (37° C.) for 5 hours, and thereafter an absorbance of 450 nm was measured using a microplate reader. The percentage of the absorbance of each sample relative to an absorbance when treatment (1), which was a control experiment, was performed was calculated. The absorbance when treatment (1) was performed was almost the same as the absorbance of untreated cells.
Conditions of treatments (1) to (6) and percentages of absorbances of samples obtained through the treatments were as follows. The amount by which the percentage of an absorbance decreased from 100% is presumed to be substantially equal to a death rate (%) of cancer cells.
(1) The medium was replaced with 100 μL of PBS (pH: 7.0)** and left to stand at room temperature for 30 minutes. ------ Absorbance percentage: 100% (2) The medium was replaced with 100 μL of PBS (pH: 7.0) and irradiated with light (radiant energy: 72 J/cm^2) at room temperature for 30 minutes using an LED (product name: M455L3, Thorlabs Japan Inc., wavelength: 455 nm, irradiance: 40 mW/cm^2). ------ Absorbance percentage: 96% (3) The medium was replaced with 100 μL of PBS (pH: 7.0) containing 1.4 mM of NaClO2 and left to stand at room temperature for 30 minutes. ------ Absorbance percentage: 97% (4) The medium was replaced with 100 μL of PBS (pH: 7.0) containing 1.4 mM of NaClO2 and irradiated with light (radiant energy: 72 J/cm^2) at room temperature for 30 minutes using an LED (product name: M455L3, Thorlabs Japan Inc., wavelength: 455 nm, irradiance: 40 mW/cm^2). ------ Absorbance percentage: 11% (5) The medium was replaced with 100 μL of PBS (pH: 7.0) containing 2.8 mM of NaClO2 and left to stand at room temperature for 30 minutes. ------ Absorbance percentage: 97% (6) The medium was replaced with 100 μL of PBS (pH: 7.0) containing 2.8 mM of NaClO2 and irradiated with light (radiant energy: 72 J/cm^2) at room temperature for 30 minutes using an LED (product name: M455L3, Thorlabs Japan Inc., wavelength: 455 nm, irradiance: 40 mW/cm^2). ------ Absorbance percentage: 6% **: A phosphate-buffered saline whose pH was adjusted to 7.0 and osmotic pressure was adjusted to be the same as that of a standard phosphate-buffered saline having a pH of 7.5 was used. Specifically, PBS (pH: 7.0) had the following composition: NaCl: 140 mM, KCl: 0.43 mM, KH2PO4: 3.72 mM, Na2HPO4: 5.81 mM.

[6] = Experiment 1: 20 μmol/L chlorine dioxide radical sample mixed 1:1 with cell suspension, room temperature 30 minutes
[7] = control: sodium chlorite aqueous solution not irradiated with light, 25° C. 1 hour

Compound | concentration of cells after treatment (Yeast cells; [6]) | survival rate relative to untreated (Yeast cells; [6]) | electron transfer activity of the respiratory chain (respiratory chain [1]) | electron transfer activity of the respiratory chain (respiratory chain [2]) | survival rate relative to untreated (Candida albicans; as Experiment 1 (pre-generated chlorine dioxide radicals)) | time in which ClO2 radical concentration decreased by about half [3] | number of spores decreased to ([4]; chlorine dioxide radical concentration 300 μmol/L, room temperature 30 minutes) | survival rate (Yeast cells; [7]) | survival rate relative to untreated (Candida albicans; as Experiment 2 (sodium chlorite with LED irradiation)) | survival rate (Candida albicans; [7]) | reduction in the number of spores ([4]; control 1: reagent pH 7.0 not irradiated with light) | cancer cells killed ([5]; 1.4 mM) | cancer cells killed ([5]; 2.8 mM) | Absorbance percentage (450 nm, relative to treatment (1)) ([5]; treatment (3): 1.4 mM, PBS pH 7.0, room temperature 30 minutes, no light) | Absorbance percentage (450 nm, relative to treatment (1)) ([5]; treatment (4): 1.4 mM, PBS pH 7.0, 455 nm LED 40 mW/cm^2 30 minutes (72 J/cm^2)) | Absorbance percentage (450 nm, relative to treatment (1)) ([5]; treatment (5): 2.8 mM, PBS pH 7.0, room temperature 30 minutes, no light) | Absorbance percentage (450 nm, relative to treatment (1)) ([5]; treatment (6): 2.8 mM, PBS pH 7.0, 455 nm LED 40 mW/cm^2 30 minutes (72 J/cm^2))
[O][Cl+][O-] [chlorine dioxide radicals] | about 2.5×10^7 cells/mL | about one tenth | reduction | reduction | about one tenth | ~2 h | ≤ 10^−6 |  |  |  |  |  |  |  |  |  | 
sodium chlorite |  |  |  |  |  |  |  | did not decrease | about one tenth | did not decrease | not confirmed | about 89% | ~94% | 97% | 11% | 97% | 6%
